Assay results as given in EP1060162B1, “URETHANES DERIVED FROM AZACYCLOALKANES, THIO AND DITHIO ANALOGUES, PRODUCTION AND USE THEREOF AS 2,3 EPOXYSQUALENE LANESTEROL CYCLASE INHIBITORS” (Boehringer Ingelheim Pharma KG, priority 1997, dated 1999).
Structures can show the parent of a compound that is named as a salt. Where two headings read alike, the source gives them in different places.

Columns and labels:
[1] = biological target: T1, ^14C-Acetat-Einbau in die mit Digitonin fällbaren Steroide (Homo sapiens, UniProt P48449); experiment: Inhibition of 14C-acetate incorporation into digitonin-precipitable steroids; format: cell-based; settings: read-out: Prozentwerte, um die die Verbindungen den ^14C-Acetat-Einbau hemmen
T1 sequence (P48449 2-732): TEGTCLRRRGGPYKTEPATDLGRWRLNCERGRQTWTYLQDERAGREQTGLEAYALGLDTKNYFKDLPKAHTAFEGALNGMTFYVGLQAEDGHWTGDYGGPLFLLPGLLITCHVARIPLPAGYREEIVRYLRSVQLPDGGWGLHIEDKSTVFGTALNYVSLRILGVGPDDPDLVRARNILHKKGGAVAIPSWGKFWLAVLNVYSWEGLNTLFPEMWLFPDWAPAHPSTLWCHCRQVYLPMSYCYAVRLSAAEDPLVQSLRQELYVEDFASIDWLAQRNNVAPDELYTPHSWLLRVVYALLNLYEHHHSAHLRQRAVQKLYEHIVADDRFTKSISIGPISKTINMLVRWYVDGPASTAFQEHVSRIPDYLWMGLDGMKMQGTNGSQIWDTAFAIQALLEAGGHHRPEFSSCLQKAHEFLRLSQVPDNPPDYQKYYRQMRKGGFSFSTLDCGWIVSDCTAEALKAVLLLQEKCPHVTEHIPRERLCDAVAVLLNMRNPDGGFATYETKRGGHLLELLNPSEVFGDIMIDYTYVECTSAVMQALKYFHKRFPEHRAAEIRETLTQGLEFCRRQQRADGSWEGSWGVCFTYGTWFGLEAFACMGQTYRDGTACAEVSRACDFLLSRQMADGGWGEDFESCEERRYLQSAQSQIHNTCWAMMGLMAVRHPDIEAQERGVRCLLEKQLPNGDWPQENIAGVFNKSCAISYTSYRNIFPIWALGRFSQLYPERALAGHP
Source text: I. Messung der Hemmung des ^14C-Acetat-Einbaus in die mit Digitonin fällbaren Steroide:
Die Untersuchung der Hemmwirkung wurde nach der in J. Lipid. Res. 37, 148-157 [1996] beschriebenen Methode bei Testkonzentrationen von 10^-8 und 10^-9 Mol/l durchgeführt.
Die Prozentwerte, um die obigen Verbindungen den ^14C-Acetat-Einbau hemmen, sind in Tabelle 1 angegeben.

Rhod. rubra 49 = experiment: Fungistatic effect, serial dilution test (microtitre system); format: cell-based; settings: read-out: MHK
Experimental: (§1) IV. Bestimmung der fungistatischen Wirkung
(§2) Die fungistatische Wirkung wurde über den Reihenverdünnungstest (Mikrotitersystem) bestimmt. Als Nährmedium diente Sabouraud-Bouillon. Das Inoculum betrug ca. 10^4 bis 10^5 KBE/ml (KBE = koloniebildende Einheiten); die Bebrütungszeit betrug 2 bis 4 Tage bei 26°C.
(§3) Es wurde die niedrigste Konzentration, die sichtbares Wachstum nicht mehr zuließ (minimale Hemmkonzentration MHK), bestimmt.
(§4) Geprüft wurden die vorstehend erwähnten Verbindungen A, B, D, E, F, H, I, K, L und M. Die Ergebnisse sind in der folgenden Tabelle 5 zusammengefaßt. Die MHK ist in µg/ml angegeben.

[2] = test system: Sacch. carlsbergensis ATCC 9080; experiment: as above; format: cell-based; settings: Saccharomyces pastorianus
Experimental: as §1, §2, §3, §4

Asp. niger ATCC 16404 = experiment: as above; format: cell-based; settings: Aspergillus niger
Experimental: as §1, §2, §3, §4

[3] = test system: Trich. mentagrophytes ATCC 9129; experiment: as above; format: cell-based; settings: Trichophyton mentagrophytes
Experimental: as §1, §2, §3, §4

[4] = test system: Cand. albicans ATCC 10231; experiment: as above; format: cell-based; settings: Candida albicans
Experimental: as §1, §2, §3, §4

Pen.notatum CBS 19746 = experiment: as above; format: cell-based; settings: Penicillium chrysogenum
Experimental: as §1, §2, §3, §4

[5] = test system: 2,3-Epoxisqualen-Lanosterol-Cyclase; experiment: In-vivo effect in the rat after oral administration: 2,3-epoxysqualene level in the liver; parameters: species or system Ratte
Experimental: II. Messung der in-vivo Wirkung an der Ratte nach oraler Gabe
Die Inhibierung des Enzyms 2,3-Epoxisqualen-Lanosterol-Cyclase bewirkt eine Erhöhung der 2,3-Epoxisqualenspiegel in Leber und Plasma. Die Menge an gebildetem 2,3-Epoxisqualen dient daher als direktes Maß für die Wirkstärke am Ganztier.Die Bestimmung wurde nach der in J. Lipid. Res. 38, 564-575, [1997] beschriebenen Methode nach t = 3 bzw. 8 Stunden nach Substanzgabe mit Konzentrationen von c = 0.01, 0.03, 0.1, 0.3 und 1.0 mg/kg durchgeführt. In der folgenden Tabelle 3 sind beispielhaft die Ergebnisse für die vorstehend erwähnten Substanzen A, B, C, D, E, G, H, I und K angegeben.

[6] = Lipid lowering in the normolipaemic golden hamster; format: in vivo, Goldhamster; settings: compared with control group fed without test substance
Source text: III. Lipidsenkung am normolipämischen Goldhamster.
Diese Bestimmung wurde nach der in J. Lipid. Res. 38, 564-575, (1997) beschriebenen Methode durchgeführt. Am Ende des Versuchs wurde Gesamtcholesterol, β-Lipoprotein-Cholesterol sowie HDL-Cholesterol bestimmt und mit den Werten einer ohne Testsubstanz gefütterten Kontrollgruppe verglichen.

Row | Structure (SMILES) | inhibition at 0.001 µM [1] | inhibition at 0.01 µM [1] | MIC (Rhod. rubra 49) | MIC ([2]; ATCC9080, read-out: MHK) | MIC (Asp. niger ATCC 16404; ATCC16404, read-out: MHK) | MIC ([3]; ATCC9129, read-out: MHK) | MIC ([4]; ATCC10231, read-out: MHK) | MIC (Pen.notatum CBS 19746; CBS19746, read-out: MHK) | 2,3-Epoxysqualen-Konzentration in der Leber (Ratte) ([5]; c = 0.1 mg/kg, t = 3 h) | 2,3-Epoxysqualen-Konzentration in der Leber (Ratte) ([5]; c = 0.1 mg/kg, t = 8 h) | 2,3-Epoxysqualen-Konzentration in der Leber (Ratte) ([5]; c = 1.0 mg/kg, t = 3 h) | 2,3-Epoxysqualen-Konzentration in der Leber (Ratte) ([5]; c = 1.0 mg/kg, t = 8 h) | other results
1 | Cc1ccc(OC(=O)N2CCC(Cc3ccc(CN(C)C)cc3)CC2)cc1.Cl [K, 4-[4-(Dimethylaminomethyl)benzyl] -N-(4-methylphenoxy)-carbonylpiperidin-hydrochlorid] | 49% | 82% | 64 µg/mL | 512 µg/mL | 64 µg/mL | 8 µg/mL | 64 µg/mL | 256 µg/mL | 0.4 µg/g | 0.4 µg/g | 24.0 µg/g | 5.5 µg/g | Gesamtcholesterol ([6]; Dosis 54.2 mg/kg/Tag): -6.8%; HDL-Cholesterol ([6]; Dosis 54.2 mg/kg/Tag): 2.3%; β-Lipoprotein-Cholesterol ([6]; Dosis 54.2 mg/kg/Tag): -21.2%
2 | CN(C)Cc1ccc(CC2CCN(C(=O)Oc3ccc(Cl)cc3)CC2)cc1 [Verbindung H, N-(4-Chlorphenoxy)carbonyl-4-[4-(dimethylaminomethyl)-benzyl]piperidin-hydrochlorid] | 45% | 80% | 16 µg/mL | 128 µg/mL | 32 µg/mL | 1 µg/mL | 64 µg/mL | 64 µg/mL | 1.0 µg/g | 0.8 µg/g | 56.3 µg/g | 20.7 µg/g | Gesamtcholesterol ([6]; Dosis 6.5 mg/kg/Tag): -8.3%; HDL-Cholesterol ([6]; Dosis 6.5 mg/kg/Tag): -3.4%; β-Lipoprotein-Cholesterol ([6]; Dosis 6.5 mg/kg/Tag): -13.0%; Gesamtcholesterol ([6]; Dosis 19.9 mg/kg/Tag): -11.0%; HDL-Cholesterol ([6]; Dosis 19.9 mg/kg/Tag): -8.2%; β-Lipoprotein-Cholesterol ([6]; Dosis 19.9 mg/kg/Tag): -13.2%; Gesamtcholesterol ([6]; Dosis 62.3 mg/kg/Tag): -32.1%; HDL-Cholesterol ([6]; Dosis 62.3 mg/kg/Tag): -28.5%; β-Lipoprotein-Cholesterol ([6]; Dosis 62.3 mg/kg/Tag): -33.7%
3 | CN(C)Cc1ccc(CC2CCN(C(=O)OCc3ccccc3)CC2)cc1.Cl [Verbindung I, N-Benzyloxycarbonyl-4-[4-(dimethylaminomethyl)benzyl]-piperidin-hydrochlorid] |  |  |  |  |  |  |  |  | 1.0 µg/g |  | 26.1 µg/g | 10.0 µg/g | inhibition at 0.01 µM ([1]; Testkonzentration 10^-8 Mol/l): 85%; inhibition at 0.001 µM ([1]; Testkonzentration 10^-9 Mol/l): 47%; MIC (Rhod. rubra 49; Rhod., Sabouraud-Bouillon, 2 bis 4 Tage bei 26°C): 64 µg/mL; MIC ([2]; ATCC9080, Sacc., Sabouraud-Bouillon, 2 bis 4 Tage bei 26°C, read-out: MHK): 512 µg/mL; MIC (Asp. niger ATCC 16404; ATCC16404, Asp., Sabouraud-Bouillon, 2 bis 4 Tage bei 26°C, read-out: MHK): 64 µg/mL; MIC ([3]; ATCC9129, Trich., Sabouraud-Bouillon, 2 bis 4 Tage bei 26°C, read-out: MHK): 4 µg/mL; MIC ([4]; ATCC10231, Cand., Sabouraud-Bouillon, 2 bis 4 Tage bei 26°C, read-out: MHK): 256 µg/mL; MIC (Pen.notatum CBS 19746; CBS19746, Pen., Sabouraud-Bouillon, 2 bis 4 Tage bei 26°C, read-out: MHK): 128 µg/mL; Gesamtcholesterol ([6]; Dosis 47.1 mg/kg/Tag): -23.1%; HDL-Cholesterol ([6]; Dosis 47.1 mg/kg/Tag): -17.6%; β-Lipoprotein-Cholesterol ([6]; Dosis 47.1 mg/kg/Tag): -32.9%
